# Laboratory results from patent publication US20250082633A1, “COMPOUNDS AND METHODS FOR MODULATING SPLICING” (REMIX THERAPEUTICS INC., priority 2021, published 2025).
# Structures can show the parent of a compound that is named as a salt. Where two headings read alike, the source gives them in different places.
# Assays:
# MYB mRNA = test: RT-qPCR splicing assay, MYB canonical (CJ) and alternative (AJ) junction mRNA; format: cell-based; conditions: Homo sapiens; for IC50: read-out: MYB CJ IC50; for AC50: read-out: MYB AJ AC50
# Procedure: (§1) Compounds described herein were used to modulate RNA transcript abundance in cells. The expression of a target mRNA was measured by detecting the formation of an exon-exon junction in the canonical transcript (CJ). A compound mediated exon-inclusion event was detected by observing an increase in formation of a new junction with an alternative exon (AJ). Real-time qPCR assays were used to detect these splicing switches and interrogate the potency of various compounds towards different target genes. A high-throughput real time quantitative PCR (RT-qPCR) assay was developed to measure these two isoforms of the mRNA (CJ and AJ) for exemplary genes, such as HTT, SMN2, and MYB, together with a control housekeeping gene, GAPDH or GUSB or PPIA, used for normalization. Briefly, the A673 or K562 cell line was treated with various compounds described herein (e.g., compounds of Formula (I)). After treatment, the levels of the HTT, MYB, or SMN2 mRNA targets were determined from each sample of cell lysate by cDNA synthesis followed by qPCR.
# • Cells-to-CT 1-step kit: ThermoFisher A25602, Cells-to-CT lysis reagent: ThermoFisher 4391851C, TaqMan™ Fast Virus 1-Step Master Mix: ThermoFisher 4444436 • GAPDH: VIC-PL, ThermoFisher 4326317E (Assay: Hs99999905_m1)—used for K562/suspension cell lines • GUSB: VIC-PL, ThermoFisher 4326320E (Assay: Hs99999908_m1)—used for K562/suspension cell lines • PPIA: VIC-PL, ThermoFisher 4326316E (Assay: Hs99999904_m1)—used for A673/adherent cell lines
# (§2) The A673 cell line was cultured in DMEM with 10% FBS. Cells were diluted with full growth media and plated in a 96-well plate (15,000 cells in 100 ul media per well). The plate was incubated at 37° C. with 5% CO2 for 24 hours to allow cells to adhere. An 11-point 3-fold serial dilution of the compounds was made in DMSO then diluted in media in an intermediate plate. Compounds were transferred from the intermediate plate to the cell plate with the top dose at a final concentration of 10 uM in the well. Final DMSO concentration was kept at or below 0.25%. The cell plate was returned to the incubator at 37° C. with 5% CO2 for an additional 24 hours.
# (§3) The K562 cell line was cultured in IMDM with 10% FBS. For K562, cells were diluted with full growth media and plated in either a 96-well plate (50,000 cells in 50 uL media per well) or a 384-well plate (8,000-40,000 cells in 45 uL media per well). An 11-point 3-fold serial dilution of the compounds were made in DMSO then diluted in media in an intermediate plate. Compound was transferred from the intermediate plate to the cell plate with the top dose at a final concentration of 10 uM in the well. Final DMSO concentration was kept at or below 0.25%. Final volume was 100 uL for 96-well plate and 50 uL for 384-well plate. The cell plate was then placed in an incubator at 37° C. with 5% CO2 for 24 hours.
# (§4) The cells were then gently washed with 50 uL-100 uL cold PBS before proceeding to addition of lysis buffer. 30 uL-50 μL of room temperature lysis buffer with DNAse I (and optionally RNAsin) was added to each well. Cells were shaken/mixed thoroughly at room temperature for 5-10 minutes for lysis to take place and then 3 uL-5 μL of room temperature stop solution was added and wells were shaken/mixed again. After 2-5 minutes, the cell lysate plate was transferred to ice for RT-qPCR reaction setup. The lysates could also be frozen at −80° C. for later use.
# In some cases, a direct lysis buffer was used. An appropriate volume of 3× lysis buffer (10 mM Tris, 150 mM NaCl, 1.5%-2.5% Igepal and 0.1-1 U/uL RNAsin, pH 7.4) was directly added to either K562 or A673 cells in media and mixed by pipetting 3 times. The plates were then incubated at room temperature with shaking/rocking for 20-50 minutes to allow for lysis to take place. After this time, the cell lysate plate was transferred to ice to set up for the RT-qPCR reactions. The lysates could also be frozen at −80° C. for later use. […]
# SMN2 mRNA = test: RT-qPCR splicing assay, gene panel, SMN2 canonical junction (CJ) mRNA; format: cell-based; conditions: Homo sapiens, read-out: SMN2 CJ IC50
# Procedure: as §1, §2, §3, §4
# In some cases, a direct lysis buffer was used. An appropriate volume of 3× lysis buffer (10 mM Tris, 150 mM NaCl, 1.5%-2.5% Igepal and 0.1-1 U/uL RNAsin, pH 7.4) was directly added to either K562 or A673 cells in media and mixed by pipetting 3 times. The plates were then incubated at room temperature with shaking/rocking for 20-50 minutes to allow for lysis to take place. After this time, the cell lysate plate was transferred to ice to set up for the RT-qPCR reactions. The lysates could also be frozen at −80° C. for later use.
# To set up 10 uL RT-qPCR reactions, cell lysates were transferred to 384-well qPCR plates containing the master mix according to the table below. The plates were sealed, gently vortexed, and spun down before the run. The volumes were adjusted accordingly in some instances where the reaction was carried in 20 μL. The table below summarizes the components of the RT-qPCR reactions:
# The RT-qPCR reaction was performed using a QuantStudio (ThermoFisher) under the following fast cycling conditions. […]
# [1] = decrease in CJ mRNA levels, larger panel of genes, Table 3
# [2] = decrease in canonical junction mRNA, A673 or K562 cells, 24 hours treatment, Table 2
# [3] = increase in alternative junction mRNA, A673 or K562 cells, 24 hours treatment, Table 2
Structure (SMILES),IC50 (MYB mRNA; [1]),IC50 (MYB mRNA; [2]),IC50 (SMN2 mRNA; [1]),AC50 (MYB mRNA; [3]),AC50 (MYB mRNA; 24 h),IC50 (MYB mRNA; 24 h),IC50 (MYB mRNA),IC50 (SMN2 mRNA)
"CCN1CCC(n2cc3cc(-c4cc(F)c5nn(C)cc5c4)cc(F)c3n2)CC1 [Compound 104, 2-(1-ethyl-4-piperidyl)-7-fluoro-5-(7-fluoro-2-methyl-indazol-5-yl)indazole]",1000 to 10000 nM,1000 to 10000 nM,< 100 nM,1000 to 10000 nM,–,–,–,–
"Cn1cc2cc(-c3ccc4nn(C5CCNCC5)cc4n3)c(O)c(F)c2n1 [Compound 107, 7-fluoro-2-methyl-5-[2-(4-piperidyl)pyrazolo [4,3-b]pyridin-5-yl]indazol-6-ol]",100 to 1000 nM,100 to 1000 nM,< 100 nM,100 to 1000 nM,–,–,–,–
"Cn1cc2cc(-c3cc(F)c4nn(C5CCNC6(CC6)C5)cc4c3)cc(F)c2n1 (centres unmarked) [Compound 108, 2-(4-azaspiro[2.5]octan-7-yl)-7-fluoro-5-(7-fluoro-2-methyl-indazol-5-yl)indazole]",100 to 1000 nM,100 to 1000 nM,100 to 1000 nM,1000 to 10000 nM,–,–,–,–
"Cc1c(O)c(-c2ccc3nn(C4CCNCC4)cc3n2)cc2cn(C)nc12 [Compound 109, 2,7-dimethyl-5-[2-(4-piperidyl)pyrazolo[4,3-b]pyridin-5-yl]indazol-6-ol]",100 to 1000 nM,100 to 1000 nM,< 100 nM,100 to 1000 nM,–,–,–,–
"Cn1cc2cc(-c3ccc4nn(C5CCNCC5)cc4n3)c(O)cc2n1 [Compound 110, 2-methyl-5-[2-(4-piperidyl)pyrazolo[4,3-b]pyridin-5-yl]indazol-6-ol]",100 to 1000 nM,100 to 1000 nM,< 100 nM,100 to 1000 nM,–,–,–,–
"Cc1c(O)c(-c2ccc3nn(C4CCNCC4)nc3n2)cc2cn(C)nc12 [Compound 113, 2,7-dimethyl-5-[2-(4-piperidyl)triazolo[4,5-b]pyridin-5-yl]indazol-6-ol]",> 10000 nM,> 10000 nM,1000 to 10000 nM,> 10000 nM,–,–,–,–
"Cc1cc(-n2cc3cc(C4CCNCC4)cc(F)c3n2)cc2cn(C)nc12 [Compound 115, 2-(2,7-dimethylindazol-5-yl)-7-fluoro-5-(4-piperidyl)indazole]",> 10000 nM,> 10000 nM,100 to 1000 nM,1000 to 10000 nM,–,–,–,–
"Cc1cc(-n2cc3cc(N4CCNCC4)cc(F)c3n2)cc2cn(C)nc12 [Compound 117, 2-(2,7-dimethylindazol-5-yl)-7-fluoro-5-piperazin-1-yl-indazole]",> 10000 nM,> 10000 nM,100 to 1000 nM,1000 to 10000 nM,–,–,–,–
"Cc1nc2c(C)cc(-n3cc4cc(N5CCNCC5)cc(F)c4n3)cc2o1 [Compound 119, 6-(7-fluoro-5-piperazin-1-yl-indazol-2-yl)-2,4-dimethyl-1,3-benzoxazole]",> 10000 nM,> 10000 nM,1000 to 10000 nM,> 10000 nM,–,–,–,–
"Cc1cc(-n2cc3cc(N4CCNCC4)ccc3n2)cc2cn(C)nc12 [Compound 121, 2,7-dimethyl-5-(5-piperazin-1-ylindazol-2-yl)indazole]",> 10000 nM,> 10000 nM,1000 to 10000 nM,> 10000 nM,–,–,–,–
"Cc1cn2nc(-c3cc(F)c4nn(C5CCNCC5)cc4c3)cc(C)c2n1 [Compound 122, 6-(7-fluoro-2-(piperidin-4-yl)-2H-indazol-5-yl)-2,8-dimethylimidazo [1,2-b]pyridazine hydrochloride salt]",–,–,–,–,< 100 nM,< 100 nM,< 100 nM,< 100 nM

# More lines, main results first:
IC50 (MYB mRNA; [1]),IC50 (MYB mRNA; [2]),IC50 (SMN2 mRNA; [1]),Structure (SMILES),AC50 (MYB mRNA; [3]),AC50 (MYB mRNA; 24 h),IC50 (MYB mRNA; 24 h),IC50 (MYB mRNA),IC50 (SMN2 mRNA)
1000 to 10000 nM,1000 to 10000 nM,100 to 1000 nM,"Cn1cc2cc(-c3cc(F)c4nn(C5CCNCC5)nc4c3)cc(F)c2n1 [Compound 103, 4-fluoro-6-(7-fluoro-2-methyl-indazol-5-yl)-2-(4-piperidyl) benzotriazole]",1000 to 10000 nM,–,–,–,–
100 to 1000 nM,100 to 1000 nM,< 100 nM,"Cn1cc2cc(-c3ccc4nn(C5CCNCC5)cc4c3)cc(F)c2n1 [Compound 105, 7-fluoro-2-methyl-5-[2-(4-piperidyl)indazol-5-yl]indazole]",1000 to 10000 nM,–,–,–,–
> 10000 nM,> 10000 nM,100 to 1000 nM,"Cc1cn2nc(-n3cc4cc(C5CCNCC5)cc(F)c4n3)cc(C)c2n1 [Compound 120, 6-[7-fluoro-5-(4-piperidyl)indazol-2-yl]-2,8-dimethyl-imidazo[1,2-b]pyridazine]",1000 to 10000 nM,–,–,–,–
1000 to 10000 nM,1000 to 10000 nM,100 to 1000 nM,"Cc1nc2c(C)c(O)c(-c3cc(F)c4nn(C5CCNCC5)cc4c3)cc2o1 [Compound 123, 6-[7-fluoro-2-(4-piperidyl)indazol-5-yl]-2,4-dimethyl-1,3-benzoxazol-5-ol]",1000 to 10000 nM,–,–,–,–
100 to 1000 nM,100 to 1000 nM,< 100 nM,"Cc1cn2nc(-c3cc(F)c4nn(C5CCNCC5)cc4c3)cc2c(C)n1 [Compound 124, 2-[7-fluoro-2-(4-piperidyl)indazol-5-yl]-4,6-dimethyl-pyrazolo[1,5-a]pyrazine]",100 to 1000 nM,–,–,–,–
100 to 1000 nM,100 to 1000 nM,< 100 nM,"Cc1cn2cc(-c3cc(F)c4nn(C5CCNCC5)cc4c3)cc(C)c2n1 [Compound 125, 5-(2,8-dimethylimidazo[1,2-a]pyridin-6-yl)-7-fluoro-2-(4-piperidyl)indazole]",100 to 1000 nM,–,–,–,–
> 10000 nM,> 10000 nM,1000 to 10000 nM,"Cc1c(O)c(-c2cc(F)c3nn(C4CCNCC4)cc3c2)cc2cn(C)nc12 [Compound 126, 5-[7-fluoro-2-(4-piperidyl)indazol-5-yl]-2,7-dimethyl-indazol-6-ol]",> 10000 nM,–,–,–,–
100 to 1000 nM,100 to 1000 nM,< 100 nM,"Cc1cn2cc(-c3cc(F)c4nn(C5CCNCC5)cc4c3)cc(Cl)c2n1 [Compound 127, 5-(8-chloro-2-methylimidazo[1,2-a]pyridin-6-yl)-7-fluoro-2-(piperidin-4-yl)-2H-indazole hydrochloride salt]",100 to 1000 nM,–,–,–,–
100 to 1000 nM,100 to 1000 nM,< 100 nM,"Cc1cn2cc(-c3cc(F)c4nn(C5CCNCC5)cc4c3)cc(F)c2n1 [Compound 129, 7-fluoro-5-(8-fluoro-2-methylimidazo[1,2-a]pyridin-6-yl)-2-(piperidin-4-yl)-2H-indazole]",100 to 1000 nM,–,–,–,–
